Test results from ChEMBL document CHEMBL5137044, “Expansion of the S-CN-DABO scaffold to exploit the impact on inhibitory activities against the non-nucleoside HIV-1 reverse transcriptase” (Eur J Med Chem, 2022).
pEC50, pIC50: −log10 of the molar value.

Key:
[1] = test system: Human immunodeficiency virus 1; assay: Antiviral activity against […] HIV-1 infected in human MT4 cells assessed as reduction in virus-induced cytopathic effect incubated for 5 days by MTT assay; type: functional, organism-based; conditions: Human immunodeficiency virus 1, MT4, 120 h
[2] = Cytotoxicity against human MT4 cells assessed as cell growth inhibition incubated for 5 days by MTT assay; type: toxicity, cell-based; conditions: time 5 day
[3] = Selectivity index, ratio of CC50 for human MT4 cells to EC50 for antiviral activity against NNRTI resistant HIV-1 infected in human MT4 cells; type: toxicity, cell-based; conditions: read-out: Ratio CC50/EC50
[4] = test system: Human immunodeficiency virus 1; assay: Antiviral activity against drug-resistant HIV-1 L100I mutant infected in human MT4 cells assessed as reduction in virus-induced cytopathic effect incubated for 5 days by MTT assay; type: functional, organism-based; conditions: Human immunodeficiency virus 1, L100I mutant, MT4, 120 h
[5] = test system: Human immunodeficiency virus 1; assay: Antiviral activity against drug-resistant HIV-1 K103 N mutant infected in human MT4 cells assessed as reduction in virus-induced cytopathic effect incubated for 5 days by MTT assay; type: functional, organism-based; conditions: Human immunodeficiency virus 1, K103 N mutant, MT4, 120 h
[6] = test system: Human immunodeficiency virus 1; assay: Antiviral activity against drug-resistant HIV-1 Y181C mutant infected in human MT4 cells assessed as reduction in virus-induced cytopathic effect incubated for 5 days by MTT assay; type: functional, organism-based; conditions: Human immunodeficiency virus 1, Y181C mutant, MT4, 120 h
[7] = test system: Human immunodeficiency virus 1; assay: Antiviral activity against drug-resistant HIV-1 Y188L mutant infected in human MT4 cells assessed as reduction in virus-induced cytopathic effect incubated for 5 days by MTT assay; type: functional, organism-based; conditions: Human immunodeficiency virus 1, Y188L mutant, MT4, 120 h
[8] = test system: Human immunodeficiency virus 1; assay: Antiviral activity against drug-resistant HIV-1 E138K mutant infected in human MT4 cells assessed as reduction in virus-induced cytopathic effect incubated for 5 days by MTT assay; type: functional, organism-based; conditions: Human immunodeficiency virus 1, E138K mutant, MT4, 120 h
[9] = biological target: Human immunodeficiency virus type 1 reverse transcriptase (Human immunodeficiency virus 1, UniProt Q72547); assay: Inhibition of recombinant wild-type p66/p51 HIV-1 reverse transcriptase incubated for 40 mins by picogreen dye-based spectrofluorometric analysis
[10] = Fold resistance, ratio of EC50 for antiviral activity against drug-resistant HIV-1 L100I mutant infected in human MT4 cells to EC50 for antiviral activity against […] HIV-1 infected in human MT4 cells; type: functional
[11] = Fold resistance, ratio of EC50 for antiviral activity against drug-resistant HIV-1 K103 N mutant infected in human MT4 cells to EC50 for antiviral activity against […] HIV-1 infected in human MT4 cells; type: functional
[12] = Fold resistance, ratio of EC50 for antiviral activity against drug-resistant HIV-1 Y181C mutant infected in human MT4 cells to EC50 for antiviral activity against […] HIV-1 infected in human MT4 cells; type: functional
[13] = Fold resistance, ratio of EC50 for antiviral activity against drug-resistant HIV-1 Y188L mutant infected in human MT4 cells to EC50 for antiviral activity against […] HIV-1 infected in human MT4 cells; type: functional
[14] = Fold resistance, ratio of EC50 for antiviral activity against drug-resistant HIV-1 E138K mutant infected in human MT4 cells to EC50 for antiviral activity against […] HIV-1 infected in human MT4 cells; type: functional

Structure (SMILES) | pEC50 [1] | CC50 at 120 h [2] [µM] | selectivity ratio [3] | pEC50 [4] | pEC50 [5] | pEC50 [6] | pEC50 [7] | pEC50 [8] | pIC50 [9] | Ratio EC50 [10] | Ratio EC50 [11] | Ratio EC50 [12] | Ratio EC50 [13] | Ratio EC50 [14]
Cc1c(C(C#N)c2ccccc2)nc(SC(C)C)[nH]c1=O (stereo unspecified) | 6.43 | 204 | 547 | 4.99 | 4.17 | 5.04 | < 3.69 | 6.06 | 5.82 | 28 | 185 | 25 | >550 | 2
Cc1c(C(C#N)c2cc(C(F)(F)F)cc(C(F)(F)F)c2)nc(SC(C)C)[nH]c1=O (stereo unspecified) | 4.56 | 287 | – | < 3.56 | < 3.54 | 3.73 | < 3.54 | 3.65 | 4.26 | >10 | >10 | 7 | >10 | 8
Cc1c(C(C#N)c2ccc(Br)cc2)nc(SC(C)C)[nH]c1=O (stereo unspecified) | 6.17 | 47.1 | 71 | < 4.99 | < 4.33 | < 4.33 | < 4.33 | 5.90 | 5.75 | >15 | >70 | >70 | >70 | >2
Cc1c(C(C#N)c2cccc(F)c2)nc(SC(C)C)[nH]c1=O (stereo unspecified) | 6.57 | 202 | 754 | 4.87 | 4.18 | 5.16 | < 3.70 | 6.02 | 6.08 | 50 | 245 | 26 | >753 | 4
Cc1c(C(C#N)c2ccccc2Br)nc(SC(C)C)[nH]c1=O (stereo unspecified) | 6.94 | 77.6 | 676 | 5.70 | 4.55 | 5.28 | 4.27 | 6.70 | 6.70 | 17 | 246 | 46 | 469 | 2
Cc1c(C(C#N)c2ccc(Cl)cc2)nc(SC(C)C)[nH]c1=O (stereo unspecified) | 5.90 | 70.2 | 56 | < 4.84 | < 4.15 | < 4.15 | < 4.15 | 5.38 | 5.47 | >11 | >56 | >56 | >56 | 3
Cc1c(C(C#N)c2ccc(-c3ccccc3)cc2)nc(SC(C)C)[nH]c1=O (stereo unspecified) | < 4.52 | 30.5 | < 1 | – | – | – | – | – | – | – | – | – | – | –
Cc1c(C(C#N)c2ccccc2F)nc(SC(C)C)[nH]c1=O (stereo unspecified) | 7.26 | 113 | 2030 | 5.45 | 4.98 | 5.41 | < 3.95 | 6.77 | 7.00 | 64 | 192 | 71 | >2051 | 3
Cc1c(C(C#N)c2cccc(Cl)c2)nc(SC(C)C)[nH]c1=O (stereo unspecified) | 6.46 | 172 | 493 | 4.95 | 4.30 | 5.14 | < 4.16 | 6.06 | 6.15 | 32 | 144 | 21 | >199 | 2
Cc1c(C(C#N)c2cccc(Br)c2)nc(SC(C)C)[nH]c1=O (stereo unspecified) | 6.55 | 125 | 443 | 5.13 | 4.32 | 5.19 | < 3.90 | 6.15 | 6.24 | 26 | >170 | 23 | >445 | 3
Cc1c(C(C#N)c2ccccc2Cl)nc(SC(C)C)[nH]c1=O (stereo unspecified) | 7.17 | 89.2 | 1320 | 5.75 | 5.00 | 5.46 | 4.26 | 7.10 | 7.10 | 26 | 146 | 51 | 807 | 1
O=C1Nc2ccc(Cl)cc2[C@@](C#CC2CC2)(C(F)(F)F)O1 [EFAVIRENZ] | – | – | – | 7.43 | 7.03 | 8.15 | 6.69 | 8.21 | – | – | – | – | – | –
Cc1cc(C#N)cc(C)c1Oc1nc(Nc2ccc(C#N)cc2)nc(N)c1Br [ETRAVIRINE] | – | 4.6 | > 1620 | 7.94 | 8.47 | 7.79 | – | 8.04 | – | 4 | 1 | 6 | 7 | 3
Cc1ccnc2c1NC(=O)c1cccnc1N2C1CC1 [NEVIRAPINE] | 6.77 | – | – | 5.59 | 5.09 | 5.11 | < 4.82 | 6.70 | – | – | – | – | – | –
Cc1cn([C@H]2C[C@H](N=[N+]=[N-])[C@@H](CO)O2)c(=O)[nH]c1=O [ZIDOVUDINE] | 7.64 | – | > 309 | 8.08 | 7.54 | 7.62 | 7.97 | 7.57 | – | 0.4 | 1 | 1 | 0.5 | 1
